Tests used:
[1] = molecular target: Glycogen synthase kinase-3 alpha (Homo sapiens) (UniProt P49840); experiment: Inhibition of N-terminal GST-fused full length human GSK3-alpha (1 to 483 residues) expressed in baculovirus expression system using CREBtide-p as substrate at 1 uM in presence of ATP by Mobility shift assay
[2] = molecular target: Eukaryotic elongation factor 2 kinase (Homo sapiens) (UniProt O00418); experiment: Inhibition of N-terminal GST-fused full length human EEF2K (1 to 725 residues) expressed in Escherichia coli expression system using EEF2Ktide as substrate at 1 uM in presence of ATP by Mobility shift assay
[3] = molecular target: Muscle, skeletal receptor tyrosine-protein kinase (Homo sapiens) (UniProt O15146); experiment: Inhibition of N-terminal GST-fused human MUSK catalytic domain (527 to 869 residues) expressed in baculovirus-infected Sf21 cells using CSKtide as substrate at 1 uM in presence of ATP by Mobility shift assay
[4] = molecular target: Tyrosine-protein kinase Fes/Fps (Homo sapiens) (UniProt P07332); experiment: Inhibition of N-terminal GST-fused full length human FES (1 to 413, 416 to 822 residues) expressed in baculovirus-infected Sf21 cells using Srctide as substrate at 1 uM in presence of ATP by Mobility shift assay
[5] = molecular target: Ephrin type-A receptor 1 (Homo sapiens) (UniProt P21709); experiment: Inhibition of N-terminal GST-fused human EPHA1 cytoplasmic domain (586 to 976 residues) expressed in baculovirus-infected Sf21 cells using Blk/Lyntide as substrate at 1 uM in presence of ATP by Mobility shift assay
[6] = molecular target: Fibroblast growth factor receptor 1 (Homo sapiens) (UniProt P11362); experiment: Inhibition of N-terminal GST-fused human FGFR1 cytoplasmic domain (398 to 822 residues ) expressed in baculovirus-infected Sf21 cells using CSKtide as substrate at 1 uM in presence of ATP by Mobility shift assay
[7] = molecular target: CDK6/cyclin D3 (Homo sapiens) (UniProt P30281+Q00534); experiment: Inhibition of N-terminal GST-tagged full length human CDK6 (1 to 326 residues)/GST-tagged human CyclinD3 (1 to 292 residues) expressed in baculovirus-infected Sf21 cells using DYRKtide-F as substrate at 1 uM in presence of ATP by Mobility shift assay
[8] = molecular target: Tyrosine-protein kinase Fgr (Homo sapiens) (UniProt P09769); experiment: Inhibition of N-terminal GST-fused full length human FGR (1 to 529 residues) expressed in baculovirus-infected Sf21 cells using Srctide as substrate at 1 uM in presence of ATP by Mobility shift assay
[9] = molecular target: Tyrosine-protein kinase Lyn (Homo sapiens) (UniProt P07948); experiment: Inhibition of N-terminal GST-tagged full length human LynB(1 to 491 residues ) expressed in baculovirus-infected Sf21 cells using Srctide as substrate at 1 uM in presence of ATP by Mobility shift assay
[10] = molecular target: Dual specificity tyrosine-phosphorylation-regulated kinase 2 (Homo sapiens) (UniProt Q92630); experiment: Inhibition of N-terminal GST-fused full length human DYRK2 (1 to 528 residues) expressed in baculovirus expression system using DYRKtide-F as substrate at 1 uM in presence of ATP by Mobility shift assay
[11] = molecular target: Non-receptor tyrosine-protein kinase TYK2 (Homo sapiens) (UniProt P29597); experiment: Inhibition of N-terminal GST-tagged human TYK2 catalytic domain (871 to 1187 residues) expressed in baculovirus-infected Sf21 cells using Srctide as substrate at 1 uM in presence of ATP by Mobility shift assay
[12] = molecular target: Cyclin-dependent kinase 1/cyclin B1 (Homo sapiens) (UniProt P06493+P14635); experiment: Inhibition of N-terminal GST-fused full length human CDC2 (1 to 297 residues)/N-terminal GST fused human CyclinB1 (1 to 433 residues) expressed in baculovirus-infected Sf21 cells using Modified Histone H1 as substrate at 1 uM in presence of ATP by Mobility shift assay
[13] = molecular target: Mitogen-activated protein kinase 8 (Homo sapiens) (UniProt P45983); experiment: Inhibition of N-terminal GST-fused human JNK1 catalytic domain (2 to 364 residues) expressed in Escherichia coli expression system using Modified ERKtide as substrate at 1 uM in presence of ATP by Mobility shift assay
[14] = molecular target: Mitogen-activated protein kinase 3 (Homo sapiens) (UniProt P27361); experiment: Inhibition of N-terminal GST-fused full length human ERK1 (1 to 379 residues) expressed in Escherichia coli expression system using Modified Erktide as substrate at 1 uM in presence of ATP by Mobility shift assay
[15] = molecular target: Interferon-induced, double-stranded RNA-activated protein kinase (Homo sapiens) (UniProt P19525); experiment: Inhibition of N-terminal GST-fused human PKR catalytic domain (252 to 551 residues) expressed in baculovirus expression system using SRPKtide as substrate at 1 uM in presence of ATP by IMAP
[16] = molecular target: Serine/threonine-protein kinase D1 (Homo sapiens) (UniProt Q15139); experiment: Inhibition of N-terminal GST-fused full length human PKD1 (1 to 912 residues) expressed in baculovirus expression system using GS peptide as substrate at 1 uM in presence of ATP by Mobility shift assay
[17] = molecular target: Serine/threonine-protein kinase MRCK alpha (Homo sapiens) (UniProt Q5VT25); experiment: Inhibition of N-terminal GST-fused truncated human MRCKalpha (1 to 574 residues) expressed in baculovirus expression system using DAPK1tide as substrate at 1 uM in presence of ATP by Mobility shift assay
[18] = molecular target: Serine/threonine-protein kinase pim-3 (Homo sapiens) (UniProt Q86V86); experiment: Inhibition of N-terminal GST-tagged full length human PIM3 (1 to 326 residues) expressed in baculovirus expression system using S6K2 peptide as substrate at 1 uM in presence of ATP by Mobility shift assay
[19] = molecular target: 3-phosphoinositide-dependent protein kinase 1 (PDPK1) (Homo sapiens) (UniProt O15530); experiment: Inhibition of N-terminal GST-fused full length human PDK1 (1 to 556 residues) expressed in baculovirus expression system using T308tide as substrate at 1 uM in presence of ATP by Mobility shift assay
[20] = molecular target: Tyrosine-protein kinase FRK (Homo sapiens) (UniProt P42685); experiment: Inhibition of N-terminal GST-fused human FRK catalytic domain (223 to 505 residues) expressed in baculovirus-infected Sf21 cells using Srctide as substrate at 1 uM in presence of ATP by Mobility shift assay
[21] = molecular target: Cyclin-dependent kinase 5/CDK5 activator 1 (Homo sapiens) (UniProt Q00535+Q15078); experiment: Inhibition of N-terminal GST-tagged full length human CDK5 (1 to 292 residues)/N-terminal GST-tagged human p25 (99 to 307 residues) expressed in baculovirus-infected Sf21 cells using Modified Histone H1 as substrate at 1 uM in presence of ATP by Mobility shift assay

Cc1cc(C)c(CNC(=O)c2cc(Cl)c3c(c2C)O[C@@](C)([C@H]2CC[C@H](N(C)C)CC2)O3)c(=O)[nH]1 [VALEMETOSTAT]
inhibition [1]: 1.9%
inhibition [2]: -0.3%
inhibition [3]: -5.5%
inhibition [4]: -2.7%
inhibition [5]: -1.6%
inhibition [6]: -4.3%
inhibition [7]: -4.9%
inhibition [8]: -6.5%
inhibition [9]: -4.3%
inhibition [10]: 6%
inhibition [11]: -8.8%
inhibition [12]: 8.7%
inhibition [13]: -4.9%
inhibition [14]: -4.1%
inhibition [15]: 2.9%
inhibition [16]: -6.9%
inhibition [17]: 0.8%
inhibition [18]: 5.9%
inhibition [19]: -5.9%
inhibition [20]: -4.5%
inhibition [21]: -2.4%

Cc1cc(C)c(CNC(=O)c2cc(Br)c3c(c2C)O[C@@](C)([C@H]2CC[C@H](N(C)C)CC2)O3)c(=O)[nH]1
inhibition [1]: 1.8%
inhibition [2]: -3%
inhibition [3]: -5.1%
inhibition [4]: -0.6%
inhibition [5]: -2.8%
inhibition [6]: -2.9%
inhibition [7]: -8.9%
inhibition [8]: -4.6%
inhibition [9]: -3.2%
inhibition [10]: -2.3%
inhibition [11]: -2.4%
inhibition [12]: 1.8%
inhibition [13]: -3.4%
inhibition [14]: -2.6%
inhibition [15]: -3%
inhibition [16]: -6.9%
inhibition [17]: 2.7%
inhibition [18]: 5.7%
inhibition [19]: -5.4%
inhibition [20]: -3.6%
inhibition [21]: 5.9%

From ChEMBL document CHEMBL5647694, “Novel orally bioavailable EZH1/2 dual inhibitors with greater antitumor efficacy than an EZH2 selective inhibitor” (Cancer Sci, 2017)
